Measured values from patent US20210038545A1 (priority 2018, published 2021).

System: S. pneumoniae
Details: mice colonized with IAV (H1N1, 7 dpi) microbiota; acetate five days before 1×10^6 CFUs; vs vehicle-treated transplanted animals; FIG. 4A

`CC(=O)O` [acetate] was tested. Which “resistance to S. pneumoniae challenge” value did it give?
The value was “more resistant”.
